Measurements as given in PubChem BioAssay AID850 (SRMLSC, 2007).
Active and inactive are the calls of the source. The rule behind the calls is not given here.

How the values were obtained:
[1] = concentration-response yeast growth inhibition under permissive conditions, counter-assay for yeast lifespan-shortening chemical project (AID 850); conditions: Saccharomyces cerevisiae growth inhibition, permissive control, measured here: maximum growth inhibition, stronger effect = higher value;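 note: growth read as optical density after one day of incubation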
[2] = test system: Saccharomyces cerevisiae growth inhibition, permissive control; assay: as above

SMILES	inhibition ([1]; at 50 µM) [%]	IC50 [2]	other results
CC1CCCC2(C1)NC(=S)N(c1ccccc1)N2 (centres undefined)	78.8	20.5 µM	
O=c1cc(C(F)(F)F)[nH]c2c(C(F)(F)F)cccc12	97.5	11.2 µM	
Cc1ccccc1NC(=S)c1nc2ccccc2[nH]1	95.3	11.8 µM	
CC(C)CN=Cc1c(O)c([N+](=O)[O-])cc2oc3c(c12)CCCC3	60.1	41 µM	
CCc1oc2ccccc2c1C(=O)c1cc(Br)c(O)c(Br)c1	87.7	36.1 µM	
O/N=C/c1ccc(OCc2ccccc2)c(Br)c1		> 100 µM (inactive)	inhibition ([1]; at 0.781 µM): 11.2%
CCOCC(=O)Nc1nc2c(s1)C(=O)CC(C)(C)C2	1.4	> 100 µM (inactive)	
COc1ccc(-c2cc(C(=O)N3CCN(c4ncccn4)CC3)c3ccccc3n2)c(OC)c1		> 100 µM (inactive)	inhibition ([1]; at 12.5 µM): 23.4%
NC(N)=N/N=C/c1ccc(OCc2ccc(Cl)cc2)cc1	81.6	34.6 µM	
CC(C)CNC(=O)CN(C1CCCCC1)S(C)(=O)=O		> 100 µM (inactive)	inhibition ([1]; at 1.563 µM): 9.04%
N#C/C(=N/O)c1nc(-c2ccc(F)cc2)cs1	78.8	15.9 µM	
CC(N=Cc1cccc(O)c1O)c1ccccc1 (centres undefined)	98	9.56 µM	
O=C(Nc1nc(-c2ccccn2)cs1)C1COc2ccccc2O1 (centres undefined)	95.2	11.6 µM	
c1cnc2c(c1)ccc1cccnc12	100	8.23 µM	
Cn1cccc1C(=O)Nc1nc(-c2ccccn2)cs1	97.9	22.5 µM	
COc1ccccc1OCCCc1c(C)n[nH]c1C	100	5.76 µM	
COc1ccc(-c2cc(=O)n(-c3nc4ccccc4[nH]3)[nH]2)cc1	98.2	14.6 µM	
CCC(C)N1CC23C=CC(O2)C(C(=O)OC)C3C1=O (centres undefined)		> 100 µM (inactive)	inhibition ([1]; at 0.098 µM): 10.6%
CC1CCCC2(C1)NC(=S)c1c(sc3c1CCCC3)N2 (centres undefined)		> 100 µM (inactive)	inhibition ([1]; at 0.781 µM): 10.2%
Oc1ccc(CN2CCCCC2)c2cccnc12	37.4	51.8 µM	
Cc1ccc2nc(/C(C#N)=C\c3ccc([N+](=O)[O-])o3)[nH]c2c1	99.4	9.15 µM	

SMILES	inhibition ([1]; at 50 µM) [%]	IC50 [2]	other results
Oc1c(I)cc(I)c2cccnc12	74.8	17.1 µM	
O=c1oc2ccccc2c(N2CCCC2)c1CN1CCCC1		> 100 µM (inactive)	inhibition ([1]; at 12.5 µM): 11.7%
Cc1cccc(Nc2nc(-c3ccccn3)cs2)n1		13.3 µM	inhibition ([1]; at 25 µM): 63.1%
CCOC(=O)N1CCN(C(=O)Cn2nc(C)c3sc4ccccc4c3c2=O)CC1		> 100 µM (inactive)	inhibition ([1]; at 25 µM): 12.1%
COc1ccc(-c2[nH]ncc2-c2ccc(Cl)cc2)c(O)c1		> 100 µM (inactive)	inhibition ([1]; at 0.781 µM): 14.4%
Cn1c(C(=O)N2CCC(C(=O)N3CCN(Cc4ccc5c(c4)OCO5)CC3)CC2)cc2sccc21		> 100 µM (inactive)	inhibition ([1]; at 12.5 µM): 18%
c1ccc(N(c2ccccc2)c2nc(-n3ccnc3)nc(-n3ccnc3)n2)cc1	62.1	37.6 µM	
Cc1cc(Cl)ccc1N=c1ssnc1Cl		> 100 µM (inactive)	inhibition ([1]; at 12.5 µM): 14%
c1ccc(-c2nc3c(ccc4ccccc43)[nH]2)nc1	80.8	36.8 µM	
COC(=O)Cn1c2ccc(C)cc2c2nc(C)sc21	16	> 100 µM (inactive)	
COc1ccccc1-n1c(=O)oc2ccc(Cl)cc2c1=O		> 100 µM (inactive)	inhibition ([1]; at 6.25 µM): -0.76%
Cn1c2ccccc2c2cc(C(=O)O)ccc21	23.6	> 100 µM (inactive)	
O=C(COc1ccc(Cl)cc1)NC1=NN(c2ccccc2)C(=O)C1		> 100 µM (inactive)	inhibition ([1]; at 6.25 µM): 14.6%
COc1cccc(-n2nnnc2S(C)(=O)=O)c1	83.2	23.9 µM	
CCOC(=O)C1C(C)N=C2SCC(=O)N2C1c1cccc(Br)c1 (centres undefined)		> 100 µM (inactive)	inhibition ([1]; at 12.5 µM): 12.2%
CCCCSc1nc(C)c(C(C)=O)cc1C#N		> 100 µM (inactive)	inhibition ([1]; at 12.5 µM): 3.31%
CCOC(=O)c1cnc(-n2nc(C)cc2C)nc1NC1CCCCC1	57.5	42.8 µM	
Cc1ccc(-c2nn(C(C)(C)C)c3ncnc(N)c23)cc1	84.2	0.458 µM	
Cc1nc(N/N=C/c2ccccn2)sc1C	99.8	25.8 µM	
c1cncc(-c2nnc(-c3cccnc3)nn2)c1	90.5	26.3 µM	
O=C(O)C1C2C=CC(O2)C1C(=O)NC1CCCc2ccccc21 (centres undefined)		> 100 µM (inactive)	inhibition ([1]; at 6.25 µM): 10.9%
